Results as given in ChEMBL document CHEMBL3880431, “Heme oxygenase inhibitors, screening methods for heme oxygenase inhibitors and methods of use of heme oxygenase inhibitors for antimicrobial therapy” (2013).

Columns and labels:
Assay type in all cases: physicochemical
[1] = Lipophilicity, log P of the compound; details: octanol/water
[2] = Solubility of the compound in methanol
[3] = Solubility of the compound in ethanol

Structure (SMILES) | logP ([1]; read-out: logP) | also measured
CCc1ccc2[nH]c3nc(N/N=C/c4ccc(Cl)cc4)nnc3c2c1 | 7.15 | solubility [2]: Insoluble
N#Cc1ccc[n+](Cc2cc(=O)[nH]c(=O)[nH]2)c1 | 0.38 | 
NCc1ccc2c3c(cccc13)C(=O)N2 | 1.36 | 
Cc1ccc(NC(=O)c2cnccn2)cc1Cl | 1.48 | solubility [2]: Insoluble
Nc1nonc1-c1noc(-c2cccnc2O)n1 | 0.04 | solubility [2]: Insoluble
N=C1S/C(=C\c2ccccc2)C(=O)N1c1nonc1N | 2.4 | 
NCCNS(=O)(=O)c1cccc(C(=O)O)c1 | -0.2 | 
Nc1cc2nc3ccccc3nc2cc1N | 1.66 | 
Cc1ccc(Nc2n[nH]c(N=CNO)n2)cc1C | 2.07 | 
N#CCCNCc1cccnc1 | 0.03 | 
COc1ccc(NC(=O)CSc2nnc(C)n2-c2ccc(C)cc2)cc1 | 3.95 | 
CC(C)c1ccc(CN2CCN(CCO)CC2)cc1 | 1.93 | solubility [2]: Insoluble
O=C(Cc1n[nH]c(=O)[nH]c1=O)N/N=C/c1cccc([N+](=O)[O-])c1 | 0.86 | solubility [3]: Insoluble
O=C(Cc1ccc(F)cc1)NNC(=O)Cn1cnnn1 | -0.66 | 
O=C(CSc1nc2cccnc2[nH]1)NCCc1ccccc1 | 2.43 | 
O=C(NNC(=O)c1ccncc1)c1ccncc1 |  | logP [1]: 0.05; solubility [2]: Soluble
O=C1Nc2ccccc2Nc2ccccc21 | 2.27 | 
Nn1c(=O)[nH]c2c([nH]c3ccccc32)c1=O | 0.26 | 
NC1=N[NH+]([O-])c2ccccc2[NH+]1[O-] (stereo unspecified) | 1.22 | 
COc1ccc(/C=N/NC(=O)Cc2ccc([N+](=O)[O-])cc2)cc1 | 3.67 | 
COc1ccc(C(N)Cc2cnc[nH]2)cc1 (stereo unspecified) | 0.81 | 
O=C(O)c1ccc(Cc2ccccc2)o1 | 2.22 | 
O=[N+]([O-])c1cccc(-c2noc(Cc3ccccc3)n2)c1 | 3.33 | solubility [3]: Insoluble
CNCc1ccccc1Sc1cccc(OC)c1 | 3.92 | 
O=C(O)c1ccc2c(c1)C(=O)N(CCO)C2=O | 0.09 | solubility [2]: Soluble

Structure (SMILES) | logP ([1]; read-out: logP) | also measured
C=CCNC(=O)C(=O)Nc1ccc(C(C)C)cc1 | 2 | solubility [2]: Insoluble
O=C(O)c1ccc2c(c1)C(=O)N(c1ccc(Cl)cc1)C2=O | 3.03 | solubility [2]: Soluble
O=CNc1nonc1NNc1ccccc1 | 0.89 | solubility [2]: Soluble
COc1ccc(-c2nn(CCC#N)c(=O)[nH]2)cc1 | 1.15 | solubility [3]: Soluble
O=C(O)Cc1c(C(=O)O)[nH]c2ccccc12 | 1.67 | 
NCC(O)(c1ccc(Cl)cc1)c1ccc(Cl)cc1 | 3.63 | solubility [2]: Soluble
O=C(O)c1cccc(NCN2C(=O)c3ccc([N+](=O)[O-])cc3C2=O)c1 | 2.13 | solubility [3]: Insoluble
C=CCNc1nc(-c2cccs2)c(CC(=O)O)s1 | 2.29 | 
NC(=O)c1ccc[n+](-c2ccccc2)c1 | 2.15 | 
C/N=C(/NC)SC1CC(=O)N(c2cccc(C(=O)O)c2)C1=O (stereo unspecified) | 1.25 | 
Cc1cn[nH]c1NC=C1C(=O)c2ccccc2C1=O | 1.79 | 
c1ccc2[nH]c(Cc3ccncc3)nc2c1 | 2.14 | 
CCN1CCN(CCN)CC1 | -0.88 | solubility [2]: Soluble
COc1ccc(CNC(=N)NC(=N)N)cc1 | 1.46 | 
O=C(O)/C=C\C(=O)Nc1ccc(OCC(=O)O)cc1 | 0.6 | solubility [2]: Soluble
CN1CCN(CCCn2cnc3c2c(=O)n(C)c(=O)n3C)CC1 | -0.76 | solubility [2]: Soluble
[O-][NH+]1C=CC=C/C1=C1\C=CC=C[NH+]1[O-] (stereo unspecified) | 1.95 | 
Nc1nonc1-c1nc2ccccc2n1CC(=O)O | 1.08 | 
NCCCNc1ccc([N+](=O)[O-])c(N)c1 | 0.38 | 
O=C(NCCOc1ccccc1)C(=O)Nc1ccccc1 | 1.77 | solubility [2]: Insoluble
Nc1nonc1-n1cc(-c2ccccc2)nn1 | 1.15 | 
Cc1cc(C)nc(NC(=N)Nc2ccc(C(=O)O)cc2)n1 | 1.62 | solubility [2]: Soluble
Cc1nc(NCCCC(=O)O)c2ccccc2n1 | 1.38 | 
O=C(O)Cc1c(O)c2c(c(O)c1Cl)C(=O)c1ccccc1C2=O | 2.69 | 
Cc1cc(O)nc(-c2ccc(C(N)=O)cc2)n1 | 0.86 | solubility [3]: Insoluble

Structure (SMILES) | logP ([1]; read-out: logP) | also measured
O=C(O)c1cc(-c2cccnc2)nc2ccccc12 | 2.51 | solubility [2]: Insoluble
O=C(c1ccccc1O)c1[nH]ncc1[N+](=O)[O-] | 1.6 | 
O=C1c2ccccc2-c2nc3n[nH]nc3nc21 | 2 | 
Cn1c(=O)c(CC(=O)C(=O)O)nc2ccccc21 | -0.29 | 
O=C(O)c1ccc2c(c1)-c1nc3ccccc3n1C2=O | 2.52 | solubility [3]: Insoluble
N#CCc1ccc(NC2=NS(=O)(=O)c3ccccc32)cc1 | 2.81 | solubility [2]: Insoluble
O=C(Oc1ccc(OC(=O)c2ccco2)cc1)c1ccco1 | 2.53 | solubility [2]: Insoluble
NCCNc1nc(-c2ccccc2)nnc1-c1ccc(Cl)cc1 | 3.6 | 
CC(N)c1ccc2ccccc2c1 (stereo unspecified) | 2.88 | 
C=CCn1c(S)nc2sc3c(c2c1=O)CCN(C)C3 | 2.29 | 
Cc1nccn1S(=O)(=O)c1ccc(F)cc1 | 0.89 | 
O=C(CNC(=O)c1ccc2[nH]c3ccccc3c2c1)NCCO | 1.4 | 
O=C1OC(c2ccccc2)=N/C1=C\Nc1cccc([N+](=O)[O-])c1 | 3.05 | solubility [2]: Insoluble
NCC(=O)N(O)Cc1ccccc1 | 0.19 | 
O=C(CC1NCCNC1=O)NCc1ccccc1 (stereo unspecified) | -0.2 | 
Cc1cccc2c(CCN)c[nH]c12 | 1.9 | 
Nc1nnc(CCN2C(=O)c3ccccc3C2=O)s1 | 1.39 | 
O=C(O)CSc1nc(O)c2ccccc2n1 | 1.34 | 
NC(=O)NC(=O)C[n+]1ccc(C(N)=O)cc1 | -1.11 | solubility [3]: Insoluble
N=C(N/N=C\c1cccnc1)N/N=C\c1cccnc1 | 7.05 | solubility [2]: Soluble
CCc1cc(=O)oc2cc(OCC(N)=O)ccc12 | 1.46 | solubility [2]: Insoluble
O=C(O)c1ccccc1-c1nc(O)c2ccccc2n1 | 2.25 | 
Cc1ccc(CN2CCN(Cc3ccccc3)CC2)cc1 | 3.57 | solubility [2]: Insoluble
NC(N)N/N=C/c1cc(=O)[nH]c(=O)[nH]1 | -1.79 | 
Cc1cc(-c2ccc(F)cc2)nc2cc(C(=O)O)nn12 | 2.08 | 

Structure (SMILES) | logP ([1]; read-out: logP) | also measured
Cc1cccc(NC(=O)c2ccc(C(=O)Nc3cccc(C)n3)cc2)n1 | 2.68 | solubility [2]: Insoluble
O=C(O)CSc1cccc2ccccc12 | 3.22 | 
COc1ccc(C(=O)/C=C/Nc2ccccc2C#N)cc1 | 2.82 | solubility [3]: Insoluble
NNC(=O)c1cccc2cc[nH]c12 | 0.8 | solubility [3]: Insoluble
O=C(N/N=C/c1ccc(O)cc1O)c1cccnc1 | 1.88 | solubility [2]: Insoluble
NS(=O)(=O)c1ccc2c(N=O)c(O)ccc2c1 | 1.3 | 
Nc1ccccc1N/C=C1/C(=O)CNC1=O | -0.57 | 
c1ccc2c(c1)n[n+]1c3ccccc3[n-]n21 | 2 | 
COc1ccc2[nH]c(SCC(N)=O)nc2c1 | 1.01 | 
Oc1ccccc1/C=N/Nc1nnn[nH]1 | 3.23 | solubility [2]: Insoluble
O=C(Cn1ncc2cc([N+](=O)[O-])ccc21)NCc1ccco1 | 0.92 | 
Nc1nonc1N/N=C/c1ccc(O)c(O)c1 | 3.18 | 
O=C1CN=C(Nc2nc3ccccc3o2)N1 | 0.62 | 
Nc1nnc(-c2cc3ccc(O)cc3oc2=O)s1 | 2.05 | 
CC(=O)Nc1ccc(/N=C/c2ccco2)cc1 | 1.54 | solubility [2]: Soluble
CN(C)CCN(C)Cc1cccc2ccccc12 | 3.05 | solubility [2]: Insoluble
c1cncc(CNCc2cccnc2)c1 | 1.01 | 
O=C(Cc1ccc(Cl)cc1)N/N=C/c1c[nH]c2ccccc12 | 4.74 | solubility [2]: Soluble
O=C(c1ccco1)C12CN3CN(CN(C3)C1)C2 | -0.96 | solubility [2]: Soluble
O=C(O)C(O)c1cccc([N+](=O)[O-])c1 (stereo unspecified) | 0.98 | 
O=C(Oc1ccc(S(=O)(=O)c2ccc(OC(=O)c3ccco3)cc2)cc1)c1ccco1 | 3.38 | 
Cc1c(OC(C)C(=O)O)ccc2c3c(c(=O)oc12)CCC3 (stereo unspecified) | 2.6 | solubility [2]: Insoluble
N#Cc1ncc(-c2ccccc2)nc1C#N | 0.8 | 
COc1ccc(C(=O)n2nnc3ccccc32)cc1 | 2.77 | 
Cc1cc(C(=O)O)nn1-c1ccccc1 | 1.47 | 

Structure (SMILES) | logP ([1]; read-out: logP) | also measured
Cc1nonc1NC(=O)CN1CCN(C)CC1 | -1.04 | 
O=c1nc2oc3cc(O)ccc3cc-2c(=O)[nH]1 | 1.25 | 
O=C(CNC(=O)c1cccnc1)N/N=C/c1ccccn1 | 0.32 | solubility [2]: Soluble
O=C(O)CCC(=O)Nc1ccc(Oc2ccccc2)cc1 | 2.36 | 
Cc1ccc(O)c(/C=N/c2cccc(C(=O)O)c2)c1 | 3.28 | 
C1CN2CCC1/C(=N\Nc1nnn[nH]1)C2 | 1.56 | 
O=C(O)CNS(=O)(=O)c1ccc(F)cc1 | 0.66 | 
NC(=O)CNC(=O)Cc1ccccc1 | 0.06 | 
Cc1ccccc1C(=O)O/N=C(\N)c1cccnc1 | 2.61 | 
NC(=O)NNC1CC(=O)N(c2ccc(F)cc2)C1=O (stereo unspecified) | -0.43 | 
COC(=O)c1ccc(/C=N/n2cnnc2)cc1 | 1.55 | 
O=C(O)c1cnc2c(ccc3ccccc32)c1O | 1.87 | 
NC(=O)c1nnn2c1nc(N)c1cc(Cl)ccc12 | -0.14 | 
O=C(Cc1ccc([N+](=O)[O-])cc1)N/N=C/c1ccc(O)cc1 | 3.41 | solubility [2]: Insoluble
CCOc1ccc(Nc2nc(CC(=O)O)cs2)cc1 | 2.29 | 
O=C(O)/C=C\C(=O)Nc1ccc(Nc2ccccc2)cc1 | 2.6 | solubility [2]: Soluble
NCc1ccccn1 | -0.11 | 
COc1ccc(C(=O)COC(=O)/C=C/c2ccccc2)cc1 | 3.7 | solubility [2]: Insoluble
NC(=O)C1=NC(c2cccnc2)=NC1=O | -1.12 | 
Nc1nnnn1/N=C/c1cc2c(cc1[N+](=O)[O-])OCO2 | 0.52 | solubility [2]: Insoluble
O=C(NCc1ccco1)c1cc(C(=O)NCc2ccco2)cc([N+](=O)[O-])c1 | 1.56 | solubility [2]: Soluble
